{"source": "patent US20130149701A1", "about": "“METHODS OF IDENTIFYING THERAPEUTIC AGENTS FOR TREATING PERSISTER AND BACTERIAL INFECTION” (priority 2010, published 2013)", "key": {"[1]": {"molecular_target": "M. tuberculosis H37Rv RpsA (WT) (Mycobacterium tuberculosis, UniProt P9WH43)", "assay": "biochemical", "assay_type": "binding"}, "M. smegmatis RpsA": {"molecular_target": "T1, M. smegmatis RpsA (Mycolicibacterium smegmatis, UniProt A0QYY6)", "T1 construct": "made in house", "T1 sequence (A0QYY6 1-479)": "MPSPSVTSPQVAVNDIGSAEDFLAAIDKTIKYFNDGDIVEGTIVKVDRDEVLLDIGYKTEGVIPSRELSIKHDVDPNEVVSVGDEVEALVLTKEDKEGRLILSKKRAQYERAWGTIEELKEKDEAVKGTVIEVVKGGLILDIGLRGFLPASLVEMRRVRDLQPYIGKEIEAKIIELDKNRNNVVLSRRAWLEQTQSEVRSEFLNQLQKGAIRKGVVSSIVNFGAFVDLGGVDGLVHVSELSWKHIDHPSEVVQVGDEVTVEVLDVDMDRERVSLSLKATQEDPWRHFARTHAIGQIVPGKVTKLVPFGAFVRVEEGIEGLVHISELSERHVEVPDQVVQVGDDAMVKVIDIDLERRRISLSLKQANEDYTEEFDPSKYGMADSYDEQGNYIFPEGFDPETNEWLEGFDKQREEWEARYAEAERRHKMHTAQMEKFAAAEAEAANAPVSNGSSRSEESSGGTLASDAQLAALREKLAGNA", "assay_type": "binding", "details": "10 μM RpsA titrated with 100 μM POA"}, "[2]": {"molecular_target": "T2, wild type M. tuberculosis RpsA binding to tmRNA (Mycobacterium tuberculosis, UniProt P9WH43)", "T2 sequence (P9WH43 1-481)": "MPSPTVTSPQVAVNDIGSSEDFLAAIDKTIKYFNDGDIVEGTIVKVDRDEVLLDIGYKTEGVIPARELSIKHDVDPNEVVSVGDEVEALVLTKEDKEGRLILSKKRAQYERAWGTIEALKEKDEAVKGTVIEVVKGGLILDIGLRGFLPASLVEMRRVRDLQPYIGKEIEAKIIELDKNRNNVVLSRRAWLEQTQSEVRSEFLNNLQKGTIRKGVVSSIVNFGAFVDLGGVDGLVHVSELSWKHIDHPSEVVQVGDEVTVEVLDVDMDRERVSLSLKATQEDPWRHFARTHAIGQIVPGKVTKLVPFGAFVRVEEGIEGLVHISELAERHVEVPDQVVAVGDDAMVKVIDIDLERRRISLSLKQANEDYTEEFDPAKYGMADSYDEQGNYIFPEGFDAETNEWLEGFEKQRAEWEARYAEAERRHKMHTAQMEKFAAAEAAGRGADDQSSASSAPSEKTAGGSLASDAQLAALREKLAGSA", "details": "for effect on tmRNA binding to wild type RpsA: FIG. 5A, POA Lanes 2-7, PZA (200 g/ml), INH (1 g/ml)"}, "[3]": {"molecular_target": "M. tuberculosis ribosome, tmRNA and SmpB (trans-translation) (Mycobacterium tuberculosis, UniProt P9WH43)", "assay_type": "biochemical"}, "[4]": {"molecular_target": "M. tuberculosis ribosome (canonical translation) (Mycobacterium tuberculosis, UniProt P9WH43)", "assay_type": "biochemical"}, "[5]": {"molecular_target": "ribosome from M. smegmatis (trans-translation) (Mycolicibacterium smegmatis, UniProt A0QYY6)", "assay_type": "biochemical"}, "[6]": {"molecular_target": "ribosome from E. coli (trans-translation) (Escherichia coli, UniProt P0AG67)", "assay_type": "biochemical"}, "Endonuclease IV (Rv0670) [7]": {"molecular_target": "T3, Endonuclease IV (Rv0670) (Mycobacterium tuberculosis, UniProt P9WQ13)", "T3 sequence (P9WQ13 whole entry)": "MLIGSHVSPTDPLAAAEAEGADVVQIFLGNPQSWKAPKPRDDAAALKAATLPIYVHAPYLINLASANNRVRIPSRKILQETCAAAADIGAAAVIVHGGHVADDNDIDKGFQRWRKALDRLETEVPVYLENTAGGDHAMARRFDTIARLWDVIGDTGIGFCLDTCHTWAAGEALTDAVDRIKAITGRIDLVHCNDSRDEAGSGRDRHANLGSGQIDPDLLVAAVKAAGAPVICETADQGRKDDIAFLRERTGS", "assay_type": "biochemical, M. tuberculosis"}, "Endonuclease IV (Rv0670) [8]": {"molecular_target": "T3, Endonuclease IV (Rv0670)", "assay": "Endonuclease IV (Rv0670) activity on oligonucleotides with AP, U or H lesions", "assay_type": "biochemical, M. tuberculosis", "details": "oligos with AP, U or H lesion; POA 2, 4, 8, 16, 25 and 34 mM; INH and PZA 25 mM"}, "[9]": {"system": "M. tuberculosis cell lysates", "assay_type": "binding"}, "M. tuberculosis": {"system": "M. tuberculosis", "assay": "MIC of POA as stated in the text", "assay_type": "cell-based", "details": "Mycobacterium tuberculosis, read-out: MIC concentration"}, "[10]": {"system": "Mtb clinical isolate DHM444 / H37Rv", "assay": "microbe, parasite or virus in culture", "assay_type": "cell-based, M. tuberculosis", "details": "Mycobacterium tuberculosis, PZA, sensitive control strain H37Rv"}}, "note": "“Also recorded” adds a separate entry of the source.", "data": [{"smiles": "O=C(O)c1cnccn1", "note": "[POA, 2-pyrazinecarboxylic acid]", "values": [{"measurement": "binding to wild type RpsA (ITC)", "setting": "[1]", "result": "bound; also recorded: specifically bind"}, {"measurement": "ΔS (ITC)", "setting": "[1]; pH 7.4", "result": 27.6, "unit": "cal·mol^−1·K^−1"}, {"measurement": "Kd", "setting": "[1]; read-out: K (binding constant, ITC)", "result": 133, "unit": "nM"}, {"measurement": "binding to M. smegmatis RpsA (ITC)", "setting": "M. smegmatis RpsA", "result": "only weakly; also recorded: only very weakly"}, {"measurement": "effect on tmRNA binding to wild type RpsA", "setting": "[2]", "result": "Concentration-dependent inhibition"}, {"measurement": "inhibition of wild type Mtb RpsA binding to tmRNA", "setting": "[2]; POA at its MIC concentration of 50 μg/ml", "result": "inhibited"}, {"measurement": "concentration inhibiting trans-translation of DHFR with the rare codon cluster", "setting": "[3]", "result": "≥ 25", "unit": "µg/mL"}, {"measurement": "inhibition of trans-translation of the DHFR product", "setting": "[3]", "result": "inhibited"}, {"measurement": "trans-translation product DHFR", "setting": "[3]", "result": "still present"}, {"measurement": "inhibition of trans-translation, densitometry of band intensities", "setting": "[3]; n=5", "result": "Concentration-dependent inhibition"}, {"measurement": "effect on conventional protein synthesis (canonical translation)", "setting": "[4]", "result": "no effect; also recorded: did not inhibit"}, {"measurement": "effect on translation of the normal DHFR gene", "setting": "[4]", "result": "did not affect"}, {"measurement": "inhibition of trans-translation", "setting": "[5]", "result": "nor did it inhibit; also recorded: did not inhibit"}, {"measurement": "inhibition of trans-translation", "setting": "[6]", "result": "nor did it inhibit; also recorded: did not inhibit"}, {"measurement": "inhibition of Rv0670 (Endo IV/V) activity", "setting": "Endonuclease IV (Rv0670) [7]", "result": "inhibited the activity of Rv0670 (Endo IV/V) completely"}, {"measurement": "reversibility of Endo IV/V inhibition", "setting": "Endonuclease IV (Rv0670) [7]; dilution or dialysis", "result": "irreversibly"}, {"measurement": "inhibition of Rv0670 endonuclease activity", "setting": "Endonuclease IV (Rv0670) [8]", "result": "inhibited Rv0670 activity specifically in a dose dependent manner; also recorded: specific inhibition"}, {"measurement": "proteins bound to POA identified by Mass Spectrometry", "setting": "[9]; Examples 8-16, columns with 5-hydroxyl- and 6-hydroxyl-2-pyrazinecarboxylic acid", "result": 9, "unit": "proteins"}, {"measurement": "proteins that bound to POA", "setting": "[9]; M. tuberculosis cell lysates, column with 5-hydroxyl-2-pyrazinecarboxylic acid, FIG. 1", "result": "several proteins"}, {"measurement": "major POA binding protein", "setting": "[9]; POA-linked column, mass spectrometry", "result": "RpsA"}, {"measurement": "MIC", "setting": "M. tuberculosis", "result": 50, "unit": "µg/mL"}]}, {"smiles": "NC(=O)c1cnccn1", "note": "[PZA, Pyrazinamide]", "values": [{"measurement": "MIC", "setting": "[10]", "result": 100, "unit": "µg/mL"}, {"measurement": "binding to wild type RpsA (ITC)", "setting": "[1]", "result": "did not bind"}, {"measurement": "effect on tmRNA binding to wild type RpsA", "setting": "[2]", "result": "no effect; also recorded: not affected"}, {"measurement": "inhibition of Rv0670 (Endo IV/V) activity", "setting": "Endonuclease IV (Rv0670) [7]", "result": "no inhibition and not"}, {"measurement": "inhibition of Rv0670 endonuclease activity", "setting": "Endonuclease IV (Rv0670) [8]", "result": "did not inhibit"}]}, {"smiles": "O=C(O)c1cccnc1", "note": "[nicotinic acid]", "values": [{"measurement": "inhibition of trans-translation", "setting": "[3]", "result": "did not inhibit"}]}, {"smiles": "NNC(=O)c1ccncc1", "note": "[INH, isoniazid]", "values": [{"measurement": "effect on tmRNA binding to wild type RpsA", "setting": "[2]", "result": "no effect; also recorded: not affected"}, {"measurement": "inhibition of Rv0670 (Endo IV/V) activity", "setting": "Endonuclease IV (Rv0670) [7]", "result": "no inhibition and not"}, {"measurement": "inhibition of Rv0670 endonuclease activity", "setting": "Endonuclease IV (Rv0670) [8]", "result": "did not inhibit"}]}]}
